The record followed here is patent EP1369114A1, “Use of tryptophan metabolites as pharmaceutical agents” (Terness, Peter, Priv. Doz. Dr., priority 2002, dated 2003).

The subject of this assay is T cells activated with allogeneic dendritic cells. Briefly: Allogeneic restimulation, with donor-specific or third-party DCs, of T cells activated with allogeneic DCs. The format is cell-based, human. Set-up: restimulation with donor-specific DCs: dose or concentration left out as unconfirmed. An excerpt: • (a) Allogeneic T-cell response. DCs were infected with recombinant IDO-adeno-GFP (DC-IDO-GFP), IDO-adeno (DC-IDO) or with control adenoviruses (DC-adeno) at a MOI (multiplicity of infection) up to 500 for 2 days. Lymphocytes (PBMCs) were separated from peripheral blood of healthy donors by density gradient centrifugation and typed for HLA antigens. Only HLA-DR-different responder lymphocytes were used for DC-induced stimulation. Native DCs only, lymphocytes only, native DCs + allogeneic lymphocytes, DC-IDO-GFP + allogeneic lymphoytes, DC-IDO + allogeneic lymphoytes, DC-adeno + allogeneic lymphocytes (each time 10^5 DC + 10^5 lymphocytes in 0.2ml medium) were cultured in RPMI 1640 medium (Gibco BRL Life Technologies GmbH, Eggenstein, Germany) with 10% fetal calf serum (FCS) (final tryptophan concentration 5.25 mg/l = 25.69 uM) and Penicillin G/Streptomycin. After 5 days, ^3[H]-thymidin was added for 12hrs and the number of counts (counts per minute = cpm) determined in a (3-counter (Inotech Biosystems, Lansing, MI). In order to verify whether IDO expression or adenovirus infection harm the DCs, 10^5 cells were infected with IDO-adeno-GFP, IDO-adenovirus, or adenovirus only at a stepwise decreasing MOI (500, 250, 125, ........ 3.9) and cell viability was measured in FACS following double staining with 7-AAD and anti-CD83 antibody-PE. The percentage of dead cells never exceeded 30% for any MOI following IDO-adeno-GFP- or IDO-adeno-infection and 40% following adenovirus(control)-infection. Moreover, these values were not higher than those of native DCs cultured for the same period of time. […] After 2 days, cell proliferation was assessed by measuring ^3[H]-thymidin incorporation (cpm) as described. • (c) Tryptophan metabolite titration curves. […] After 2 days, ^3[H] thymidin was added and the number of counts recorded. […] After another 2 days, ^3[H] thymidin was added and cpm determined. […] 3[H] thymidin was added to all cultures and the number of counts (cpm) determined. • (e) Tryptophan titration curve. […]

Consider `Nc1ccccc1C(=O)CC(N)C(=O)O` (stereo not drawn) [kynurenine], for which the “restimulation with third-party DCs” value is recorded as “only minimal reactions” (extremely high doses (1500µM or 750µM) of kynurenine) and “significant restimulation” (medium or low doses (375µM - 47µM) of kynurenine). Moreover, the “restimulation with donor-specific DCs” value (kynurenine in primary stimulation, 5 days, washed) was “cannot be restimulated with DCs from the same donor”.
